According to article PMC7305224, “Mutually stabilizing interactions between proto-peptides and RNA” (Nature Communications, 2020):

Experiments:
[1] = tested on: H26a RNA (5′-rArUrGrArGrUrArArCrCrGrUrArArGrGrUrGrArArArUrU-3′); test: RNA thermal denaturation (Tm) by UV hyperchromicity, H26a RNA hairpin; format: binding
Description: (§1) Prior to Tm analyses, RNA samples were annealed in the appropriate buffer by heating to 75 °C and slowly cooling to room temperature. Depsipeptide/peptide was added to the annealed RNA and incubated at 4 °C for 20 min prior to carrying out the analysis. For analyses involving dry-down reaction mixtures, the Tm was determined by monitoring fluorescence increase upon melting of a fluorophore/quencher-labeled RNA duplex (5′-rCrGrArUrUrUrArGrCrG-/3IABkFQ/-3′ and 3′-rGrCrUrArArArUrCrGrC-FAM-5′) using a BioRad CFX Connect rtPCR instrument with a heating ramp of 1 °C/min and 20 μL final sample volumes. For analyses involving pure, synthetic compounds, the Tm of the RNA was determined by monitoring UV hyperchromicity at 260 nm using a Varian Cary Bio-100 spectrophotometer, with a heating ramp of 1 °C/min and 0.5- or 1-cm pathlength cells. The following RNA sequences were used: RNA duplex 1 = 5′-rCrGrCrUrArArArUrCrG-3′ and 5′-rCrGrArUrUrUrArGrCrG-3′; RNA duplex 2 = 5′-rArArArArUrUrUrArUrArUrUrArUrUrA-3′ and 5′-rUrArArUrArArUrArUrArArArUrUrUrU-3′; RNA duplex 3 = 5′-rArArCrGrUrArUrArCrGrUrU-3′ (palindromic); and H26a RNA = 5′-rArUrGrArGrUrArArCrCrGrUrArArGrGrUrGrArArArUrU-3′. RNA was present in each assay at a final concentration of 2.5 μM of the folded structure (2.5 μM each strand for duplex 1 and duplex 2, 5.0 μM palindromic strand for duplex 3, 2.5 μM strand for H26a RNA). Tm values were determined by nonlinear fitting of the melting curves using GraphPad Prism 8.2.1 for duplex 1 and H26a, or by finding the maximum of the first derivative of the curve using the Varian Cary Bio-100 software for duplex 2 and duplex 3. Both methods of determining the Tm gave similar values for a given denaturation curve.

[2] = tested on: RNA duplex 3 (5′-rArArCrGrUrArUrArCrGrUrU-3′, palindromic); test: RNA thermal denaturation (Tm) by UV hyperchromicity, RNA duplex 3; format: binding
Description: as §1

RNA duplex 1 = test: Depsipeptide hydrolysis assay with or without RNA duplex 1, SimFit modelling; format: physicochemical
Description: Fig. 5 RNA increases the hydrolytic lifetime of a cationic depsipeptide. a A schematic of depsipeptide-RNA interactions leading to increased depsipeptide lifetimes. The free depsipeptide is hydrolyzed with a pseudo-first rate constant, khyd-free. Binding of the depsipeptide to RNA is governed at equilibrium by kassoc/kdissoc. The pseudo-first rate constant for of depsipeptide hydrolysis within the depsipeptide–RNA complex is khyd-complex. Under conditions where complex formation is favorable and khyd-complex < khyd-free, the presence of RNA will increase the depsipeptide lifetime. b HPLC traces (270 nm) showing hydrolysis of depsipeptide 9 (25 μM) at various time points in the presence or absence of RNA duplex 1 at 37 °C in pH 7.3 buffer. The C-terminal fragment of the hydrolyzed depsipeptide is not observed because it lacks the Aba chromophore. (c) Time courses for hydrolysis of depsipeptide 9 (25 μM) with varying concentrations of the RNA duplex 1. The curves shown are from simultaneous fits of data to the model given in panel a using SimFit[44]. During fitting, we fixed kassoc = 1 × 10^5 M^−1 s^−1. Therefore, three rate constants were fit, with values obtained by the fitting of: khyd-free = 1.1 × 10^−4 s^−1, khyd-complex = 3.2 × 10^−6 s^−1, and kdissoc = 8.3 × 10^−3 s^−1. d Kinetic profile of the hydrolysis reaction of depsipeptide 9 (25 μM) in the presence of 7 μM RNA duplex 1. […] The extent of depsipeptide hydrolysis and RNA hybridization were then measured. Data are shown as a scatter plot of two independently repeated experiments.
(§2) To determine the extent of depsipeptide hydrolysis, the depsipeptide (25 μM) was incubated at 37 °C in buffer (100 mM HEPES, 10 mM NaCl, pH 7.3) in the presence or absence of 10mer RNA duplex 1 (5′-rCrGrArUrUrUrArGrCrG-3′ and 3′-rGrCrUrArArArUrCrGrC-5′) at various concentrations, or with single-stranded RNA (5′-rCrGrArUrUrUrArGrCrG-3′, 100 μM), for up to 100 h. Prior to adding depsipeptide to the reaction from its stock solution, the RNA was annealed by heating to 75 °C for 5 min, and then slowly cooling to room temperature. Reaction aliquots were quenched using 3% TFA and frozen or immediately analyzed by HPLC (270 nm). The relative concentrations of intact and hydrolyzed depsipeptide were quantified by integrating the corresponding peaks in HPLC traces. The kinetic profiles of depsipeptide hydrolysis were fit using SimFit-32 (provided by G. von Kiedrowski) according to the reaction scheme shown in Fig. 5a.
Data from the nine independent depsipeptide hydrolysis reactions carried out with different concentrations of RNA duplex were simultaneously fit using SimFit to the reaction model shown in Fig. 5a. In the model, the free depsipeptide is subject to hydrolysis at a pseudo-first order rate governed by khyd-free. Binding of the depsipeptide to RNA according to an equilibrium determined by kassoc/kdissoc yields a depsipeptide-RNA complex, for which the pseudo-first order rate of ester hydrolysis is described by khyd-complex. During fitting, we fixed kassoc = 1 × 10^5 M^−1 s^−1, on the lower end of rates observed and expected for protein–RNA association. Therefore, three parameters were variable during the fitting, and the final rate constants determined by the fitting were: khyd-free = 1.1 × 10^−4 s^−1, khyd-complex = 3.2 × 10^−6 s^−1, and kdissoc = 8.3 × 10^−3 s^−1. […] Our model assumes a 1:1 stoichiometry for depsipeptide:RNA in the complex, and assumes the RNA is present only as a duplex (ignores steps involving RNA strand hybridization to form the duplex). The final RMS error of the fit was 5.4%. The output file obtained from the fitting is provided in the Supplementary Note.

[3] = tested on: single-stranded 10mer RNA (5′-rCrGrArUrUrUrArGrCrG-3′); test: Depsipeptide hydrolysis assay with single-stranded RNA; format: physicochemical; settings: 25 μM depsipeptide, single-stranded 10mer RNA 100 µM, 37 °C, pH 7.3 buffer, HPLC
Description: as §2

[4] = SimFit results output file, final NEWTON values

Aba-Gly-Ala-Dab-Lys-Ala-Dab-Lys-lac-Dab-Lys-Ala-Dab-Lys-NH2 [compound 9]
H26a RNA Tm ([1]; observed Tm with peptide/depsipeptide 100 µM, pH 7.0, RNA alone 53.4 ± 0.5, mean ± SD of 2-4 independent experiments): 64.9 ± 0.7 °C
H26a RNA ΔTm ([1]; peptide/depsipeptide 100 μM, RNA 2.5 μM strand, pH 7.0, 10 mM phosphate, 100 mM NaCl, mean of 2–4 replicates): 11.5 °C
RNA duplex 3 Tm ([2]; observed Tm with peptide/depsipeptide 100 µM, pH 7.0, RNA alone 48.6 ± 0.7, mean ± SD of 2-4 independent experiments): 58.5 ± 0.7 °C
RNA duplex 3 ΔTm ([2]; peptide/depsipeptide 100 μM, 5.0 μM palindromic strand, pH 7.0, 10 mM phosphate, 100 mM NaCl, mean of 2–4 replicates): 9.9 °C
level of intact depsipeptide with RNA vs depsipeptide alone (RNA duplex 1; 25 μM depsipeptide ± RNA duplex 1 (25 μM each strand), 37 °C, 12 h, HPLC): substantially higher levels
increase of observed depsipeptide lifetime by RNA duplex (RNA duplex 1; 25 μM depsipeptide, RNA duplex 1, 37 °C, pH 7.3 buffer, HPLC): ~ 30 fold
kdissoc (depsipeptide–RNA complex) (RNA duplex 1; SimFit fit of hydrolysis data with kassoc fixed at 1 × 10^5 M^−1 s^−1, 37 °C, pH 7.3): 0.0083 s⁻¹
k2 (SimFit output; kdissoc) (RNA duplex 1; [4]): 8.2871E-3
k3 (SimFit output; khyd-complex) (RNA duplex 1; [4]): 3.1996E-6
k1 (SimFit output; khyd-free) (RNA duplex 1; SimFit results output file, final NEWTON values, R.M.S. 5.4087 %): 1.0596E-4
Kd (RNA duplex 1; from fixed kassoc and calculated kdissoc, read-out: predicted dissociation constant of the depsipeptide-RNA complex): 0.1 µM
fold by which khyd-complex is lower than khyd-free (RNA duplex 1; ratio of fitted rate constants): ~ 34 fold
increase of depsipeptide lifetime by single-stranded RNA [3]: roughly fivefold
